In the supplement of paper PMC11451515:

Tests used:
Conditions in all cases: 48 h
SEM cells [1] = test: cell viability relative to DMSO control; higher = less cytotoxic
Method in brief: (§1)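 Before seeding, each leukemia line was adapted for at least four passages in each medium. NOMO1 or SEM cells (500 cells/well) and P12-Ichikawa cells (1000 cells/well) went into 1536-well plates at 5 μl, then received library compounds in DMSO by pin dosing across 11 threefold concentrations, 47 μM to 0.79 nM. Readout was CellTiter-Glo One luminescence after 48 h at 37°C, and viability is given as a per-plate percentage of DMSO wells, with cell-free wells as background.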

P12-Ichikawa [2] = test: as above
Method in brief: as §1

NOMO1 [3] = test: as above
Method in brief: as §1

SEM cells [4] = test: AUC of viability dose-response curve (% viability x log10 dose units); higher = less sensitive
Method in brief: (§2)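 Medium-adapted leukemia cells in 1536-well plates, at 500 or 1000 cells/well, were incubated for 48 h at 37°C with library compounds in DMSO at 11 threefold doses from 47 μM to 0.79 nM. CellTiter-Glo One luminescence normalised per plate to DMSO and cell-free wells was fitted with a four-parameter log-logistic model over log10 doses. Area under the curve was integrated from this fit by trapezoidal rule, with curves beyond full viability scaled and failed quality-control curves removed.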

P12-Ichikawa [5] = test: as above
Method in brief: as §2

NOMO1 [6] = test: as above
Method in brief: as §2

CN1\C(=C(\O)C2=C(C=CS2)[S+]1([O-])=O)C(=O)NC3=CC=CC=N3
cell viability [%]
Conditions	NOMO1 [3]	P12-Ichikawa [2]	SEM cells [1]
HPLM + 10% dialyzed FBS, 0.000781 µM	116	110	106
HPLM + 10% dialyzed FBS, 0.00234 µM	122	105	108
HPLM + 10% dialyzed FBS, 0.00702 µM	123	114	112
HPLM + 10% dialyzed FBS, 0.0211 µM	125	116	103
HPLM + 10% dialyzed FBS, 0.0632 µM	112	114	114
HPLM + 10% dialyzed FBS, 0.19 µM	112	111	112
HPLM + 10% dialyzed FBS, 0.569 µM	109	110	109
HPLM + 10% dialyzed FBS, 1.71 µM	114	105	105
HPLM + 10% dialyzed FBS, 5.12 µM	95.4	106	106
HPLM + 10% dialyzed FBS, 15.4 µM	100	103	98.4
HPLM + 10% dialyzed FBS, 46.1 µM	44.6	104	102
RPMI 5 mM glucose + 10% FBS, 0.000781 µM	100	110	95
RPMI 5 mM glucose + 10% FBS, 0.00234 µM	106	128	107
RPMI 5 mM glucose + 10% FBS, 0.00702 µM	113	119	112
RPMI 5 mM glucose + 10% FBS, 0.0211 µM	111	116	100
RPMI 5 mM glucose + 10% FBS, 0.0632 µM	113	118	114
RPMI 5 mM glucose + 10% FBS, 0.19 µM	114	118	101
RPMI 5 mM glucose + 10% FBS, 0.569 µM	94.4	118	112
RPMI 5 mM glucose + 10% FBS, 1.71 µM	101	92.1	103
RPMI 5 mM glucose + 10% FBS, 5.12 µM	100	103	103
RPMI 5 mM glucose + 10% FBS, 15.4 µM	93.1	97.9	108
RPMI 5 mM glucose + 10% FBS, 46.1 µM	29.3	101	90.9
RPMI 5 mM glucose + 10% dialyzed FBS, 0.000781 µM	113	117	110
RPMI 5 mM glucose + 10% dialyzed FBS, 0.00234 µM	114	113	95.5
RPMI 5 mM glucose + 10% dialyzed FBS, 0.00702 µM	117	116	112
RPMI 5 mM glucose + 10% dialyzed FBS, 0.0211 µM	116	115	108
RPMI 5 mM glucose + 10% dialyzed FBS, 0.0632 µM	110	118	107
RPMI 5 mM glucose + 10% dialyzed FBS, 0.19 µM	114	111	112
RPMI 5 mM glucose + 10% dialyzed FBS, 0.569 µM	97.3	110	104
RPMI 5 mM glucose + 10% dialyzed FBS, 1.71 µM	107	109	112
RPMI 5 mM glucose + 10% dialyzed FBS, 5.12 µM	109	100	106
RPMI 5 mM glucose + 10% dialyzed FBS, 15.4 µM	92.7	105	106
RPMI 5 mM glucose + 10% dialyzed FBS, 46.1 µM	46.3	109	103

AUC of viability dose-response curve
Conditions	NOMO1 [6]	P12-Ichikawa [5]	SEM cells [4]
HPLM + 10% dialyzed FBS	450	465	467
RPMI 5 mM glucose + 10% FBS	453	449	474
RPMI 5 mM glucose + 10% dialyzed FBS	455	459	475

CCOc1ccc(Nc2nc(-c3c(C)nc4ccccn34)cs2)cc1
cell viability [%]
Conditions	NOMO1 [3]	P12-Ichikawa [2]	SEM cells [1]
HPLM + 10% dialyzed FBS, 0.000781 µM	109	117	98.8
HPLM + 10% dialyzed FBS, 0.00234 µM	118	116	105
HPLM + 10% dialyzed FBS, 0.00702 µM	119	116	111
HPLM + 10% dialyzed FBS, 0.0211 µM	111	103	89.9
HPLM + 10% dialyzed FBS, 0.0632 µM	40	53.8	38.5
HPLM + 10% dialyzed FBS, 0.19 µM	35.7	19.3	22.3
HPLM + 10% dialyzed FBS, 0.569 µM	33.4	26.3	20.4
HPLM + 10% dialyzed FBS, 1.71 µM	38.7	24.1	21.1
HPLM + 10% dialyzed FBS, 5.12 µM	38.8	16.3	20.1
HPLM + 10% dialyzed FBS, 15.4 µM	45.7	14.5	23.5
HPLM + 10% dialyzed FBS, 46.1 µM	40.4	9.9	22.9
RPMI 5 mM glucose + 10% FBS, 0.000781 µM	–	116	114
RPMI 5 mM glucose + 10% FBS, 0.00234 µM	–	121	107
RPMI 5 mM glucose + 10% FBS, 0.00702 µM	–	129	112
RPMI 5 mM glucose + 10% FBS, 0.0211 µM	–	109	94.8
RPMI 5 mM glucose + 10% FBS, 0.0632 µM	–	72.8	46.8
RPMI 5 mM glucose + 10% FBS, 0.19 µM	–	16.7	14.5
RPMI 5 mM glucose + 10% FBS, 0.569 µM	–	19.6	15.6
RPMI 5 mM glucose + 10% FBS, 1.71 µM	–	19.6	13.3
RPMI 5 mM glucose + 10% FBS, 5.12 µM	–	22.3	15.7
RPMI 5 mM glucose + 10% FBS, 15.4 µM	–	17.5	14.3
RPMI 5 mM glucose + 10% FBS, 46.1 µM	–	9.84	10.9
RPMI 5 mM glucose + 10% dialyzed FBS, 0.000781 µM	119	104	116
RPMI 5 mM glucose + 10% dialyzed FBS, 0.00234 µM	117	116	94.7
RPMI 5 mM glucose + 10% dialyzed FBS, 0.00702 µM	128	110	96.5
RPMI 5 mM glucose + 10% dialyzed FBS, 0.0211 µM	120	108	110
RPMI 5 mM glucose + 10% dialyzed FBS, 0.0632 µM	112	94.2	91.1
RPMI 5 mM glucose + 10% dialyzed FBS, 0.19 µM	33.2	28.9	26.8
RPMI 5 mM glucose + 10% dialyzed FBS, 0.569 µM	31.4	29.6	24.3
RPMI 5 mM glucose + 10% dialyzed FBS, 1.71 µM	30.2	30.3	20.7
RPMI 5 mM glucose + 10% dialyzed FBS, 5.12 µM	31.4	27.3	19.1
RPMI 5 mM glucose + 10% dialyzed FBS, 15.4 µM	35.9	28.1	19.7
RPMI 5 mM glucose + 10% dialyzed FBS, 46.1 µM	32.1	14.8	18.8

AUC of viability dose-response curve
Conditions	NOMO1 [6]	P12-Ichikawa [5]	SEM cells [4]
HPLM + 10% dialyzed FBS	270	225	232
RPMI 5 mM glucose + 10% FBS	252	232	213
RPMI 5 mM glucose + 10% dialyzed FBS	281	271	263

CN(C)CCc1c[nH]c2ccc(C[C@H]3COC(=O)N3)cc12
cell viability [%]
Conditions	NOMO1 [3]	P12-Ichikawa [2]	SEM cells [1]
HPLM + 10% dialyzed FBS, 0.000781 µM	104	98.4	72
HPLM + 10% dialyzed FBS, 0.00234 µM	119	109	89.4
HPLM + 10% dialyzed FBS, 0.00702 µM	106	109	97.7
HPLM + 10% dialyzed FBS, 0.0211 µM	113	115	95.1
HPLM + 10% dialyzed FBS, 0.0632 µM	106	105	99.3
HPLM + 10% dialyzed FBS, 0.19 µM	121	105	108
HPLM + 10% dialyzed FBS, 0.569 µM	127	116	96
HPLM + 10% dialyzed FBS, 1.71 µM	111	112	88.2
HPLM + 10% dialyzed FBS, 5.12 µM	104	88.7	72.9
HPLM + 10% dialyzed FBS, 15.4 µM	48.1	13.7	29.7
HPLM + 10% dialyzed FBS, 46.1 µM	9.77	9.01	7.45
RPMI 5 mM glucose + 10% FBS, 0.000781 µM	104	105	78.3
RPMI 5 mM glucose + 10% FBS, 0.00234 µM	98.6	101	85.5
RPMI 5 mM glucose + 10% FBS, 0.00702 µM	106	112	89
RPMI 5 mM glucose + 10% FBS, 0.0211 µM	101	104	97
RPMI 5 mM glucose + 10% FBS, 0.0632 µM	112	111	90.9
RPMI 5 mM glucose + 10% FBS, 0.19 µM	97.3	117	88.7
RPMI 5 mM glucose + 10% FBS, 0.569 µM	110	116	88.2
RPMI 5 mM glucose + 10% FBS, 1.71 µM	106	102	73.8
RPMI 5 mM glucose + 10% FBS, 5.12 µM	99.9	84.1	47.8
RPMI 5 mM glucose + 10% FBS, 15.4 µM	59.2	36.2	13.3
RPMI 5 mM glucose + 10% FBS, 46.1 µM	12.9	6.37	5.94
RPMI 5 mM glucose + 10% dialyzed FBS, 0.000781 µM	96.4	108	88.8
RPMI 5 mM glucose + 10% dialyzed FBS, 0.00234 µM	108	100	94
RPMI 5 mM glucose + 10% dialyzed FBS, 0.00702 µM	106	105	89.5
RPMI 5 mM glucose + 10% dialyzed FBS, 0.0211 µM	111	111	99.8
RPMI 5 mM glucose + 10% dialyzed FBS, 0.0632 µM	116	106	95.7
RPMI 5 mM glucose + 10% dialyzed FBS, 0.19 µM	114	111	96.3
RPMI 5 mM glucose + 10% dialyzed FBS, 0.569 µM	108	104	93.7
RPMI 5 mM glucose + 10% dialyzed FBS, 1.71 µM	102	112	80.8
RPMI 5 mM glucose + 10% dialyzed FBS, 5.12 µM	109	80.2	75.6
RPMI 5 mM glucose + 10% dialyzed FBS, 15.4 µM	87.8	38.2	26
RPMI 5 mM glucose + 10% dialyzed FBS, 46.1 µM	20.1	7.95	7.13

AUC of viability dose-response curve
Conditions	NOMO1 [6]	P12-Ichikawa [5]	SEM cells [4]
HPLM + 10% dialyzed FBS	423	405	384
RPMI 5 mM glucose + 10% FBS	433	409	340
RPMI 5 mM glucose + 10% dialyzed FBS	449	411	381
